Here are results for nine compounds from patent US20060079696A1, “Substituted compounds derived from N-(benzyl)phenylacetamide, preparation and uses” (GENFIT, priority 2004, published 2006).

The target in one assay is T1, hPPARδ (Homo sapiens, UniProt Q03181).
T1 construct: fragments of DNA amplified by PCR corresponding to the DEF domains of the human PPARα, PPARγ PPARδ nuclear receptors; expressed in transfected cells; host or cells: COS-7 (monkey kidney fibroblast line)
T1 sequence (Q03181 211-439 limits assumed): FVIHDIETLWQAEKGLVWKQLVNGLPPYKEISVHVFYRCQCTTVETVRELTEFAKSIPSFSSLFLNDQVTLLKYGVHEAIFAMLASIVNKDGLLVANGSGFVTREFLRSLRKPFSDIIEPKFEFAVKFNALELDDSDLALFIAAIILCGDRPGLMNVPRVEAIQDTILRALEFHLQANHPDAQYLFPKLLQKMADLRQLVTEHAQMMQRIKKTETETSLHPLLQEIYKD
In words: Gal4-hPPARδ chimera transactivation in COS-7 cells (luciferase). In kind it is cell-based. The note with it: induction factor standardised to an internal reference, read-out: % hGal4-PPAR transactivation (10 μM) delta. The method, then: (§1) The PPAR activation was evaluated in vitro on a monkey kidney fibroblast line (COS-7) by measuring the transcriptional activity of chimeras constituted of the DNA binding domain of the Gal4 transcription factor of yeast and of the binding domain to the ligand of the different PPARs. The compounds were tested at doses between 0.01 and 100 μM on Gal4-PPARα, γ, δ chimeras. The induction factor (ratio between the luminescence induced by the compound and the luminescence induced by the control) was measured for each condition: the higher this factor, the more the compound has PPAR-activating properties.
(§2) The COS-7 cells from ATCC were cultivated in a DMEM medium supplemented with 10% (vol/vol) of foetal calf serum, 100 U/ml penicillin (Gibco, Paisley, UK) and 2 mM L-Glutamine (Gibco, Paisley, UK). The cells were incubated at 37° C. in a humid atmosphere containing 5% CO2.
(§3) The Gal4(RE)_TkpGL3, pGal4-hPPARα, pGal4-hPPARγ, pGal4-hPPARδ and pGal4-φ plasmids have been described in the literature (Raspe, Madsen et al. 1999). The pGal4-hPPARα, pGal4-hPPARγ and pGal4-hPPARδ constructs were obtained by cloning in the pGal4-φ vector of fragments of DNA amplified by PCR corresponding to the DEF domains of the human PPARα, PPARγ PPARδ nuclear receptors.
(§4) COS-7 cells were plated in 96 wells plates (5×10^4 cells/well) and transfected, in the presence of 10% foetal calf serum and 150 ng DNA per well, with a pGal4-PPAR/Gal4(RE)_TkpGL3 ratio of 1/10. The cells were then incubated for 24 hours with the compounds to be tested, without serum. At the end of the experiment, the cells were lysed and the luciferase activities were determined by means of Steady Glow Luciferase (Promega) according to the supplier's recommendations.
(§5) The inventive compounds were tested at 10 μM on the 3 PPAR isoforms. The results obtained are detailed in table (1). The transactivation measured is expressed as a response ratio versus an internal reference for each of the isoforms.
(§6) The compounds were tested at 10 μM on the Gal4-PPARα, γ, δ chimeras. The induction factor, i.e. the ratio between the luminescence induced by the compound and the luminescence induced by the control, was measured for each condition. It was then standardised in comparison to an internal reference and the results were then expressed in percentages : the higher the activation percentage, the more the compound has PPAR-activating properties.

A further assay deals with T2, hPPARα (Homo sapiens, UniProt Q07869).
T2 construct: fragments of DNA amplified by PCR corresponding to the DEF domains of the human PPARα, PPARγ PPARδ nuclear receptors; expressed in transfected cells; host or cells: COS-7 (monkey kidney fibroblast line)
T2 sequence (Q07869 239-466 limits assumed): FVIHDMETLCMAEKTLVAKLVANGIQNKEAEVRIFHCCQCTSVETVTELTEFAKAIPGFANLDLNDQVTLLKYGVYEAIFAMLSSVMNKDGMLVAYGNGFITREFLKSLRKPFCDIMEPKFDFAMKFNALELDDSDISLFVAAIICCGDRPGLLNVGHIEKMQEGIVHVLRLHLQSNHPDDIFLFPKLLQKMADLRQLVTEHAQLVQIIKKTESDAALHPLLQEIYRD
In words: Gal4-hPPARα chimera transactivation in COS-7 cells (luciferase). The following applies: induction factor standardised to an internal reference, read-out: % hGal4-PPAR transactivation (10 μM) alpha. Format: cell-based. The protocol:
as §1, §2, §3, §4, §5, §6

The test system of another assay is hPPARα, hPPARγ, hPPARδ. Description: Gal4-hPPAR α/γ/δ transactivation: isoform selectivity and dose dependence. Format: cell-based, human. The note with it: 10 μM. The protocol: as §1, §3, §4
The inventive compounds were tested at doses between 0.01 and 100 μM on the 3 PPAR isoforms. The results obtained are detailed in FIGURES (1a), (1b) and (1c): evolution of the transactivation levels according to the dose for the three PPAR sub-types (α, γ, and δ respectively).

The target in the next assay is T3, hPPARγ (Homo sapiens, UniProt P37231).
T3 construct: fragments of DNA amplified by PCR corresponding to the DEF domains of the human PPARα, PPARγ PPARδ nuclear receptors; expressed in transfected cells; host or cells: COS-7 (monkey kidney fibroblast line)
T3 sequence (P37231 238-503 limits assumed): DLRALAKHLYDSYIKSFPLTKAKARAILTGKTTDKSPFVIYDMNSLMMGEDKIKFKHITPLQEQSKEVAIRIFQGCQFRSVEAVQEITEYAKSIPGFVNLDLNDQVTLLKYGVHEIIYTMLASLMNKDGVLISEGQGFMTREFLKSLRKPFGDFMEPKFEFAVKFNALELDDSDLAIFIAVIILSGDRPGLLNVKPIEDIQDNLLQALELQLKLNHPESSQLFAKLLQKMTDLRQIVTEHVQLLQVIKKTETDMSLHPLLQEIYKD
Description: Gal4-hPPARγ chimera transactivation in COS-7 cells (luciferase). Format: cell-based. The following applies: induction factor standardised to an internal reference, read-out: % hGal4-PPAR transactivation (10 μM) gamma. The method, then: as §1, §2, §3, §4, §5, §6

In assay [1] the target is T4, ATP-dependent potassium channels (K+ATP) (Rattus norvegicus, UniProt Q09429).
T4 construct: the potassium channels derive from a rat's cerebral cortex; tissue CEREP; host or cells: rat cerebral cortex
In words: [3H]glibenclamide binding to ATP-dependent potassium channels of rat cerebral cortex. The note with it: 1 h; 300 nM; specific displacement of [3H]glibenclamide 0.1 nM; read-out: KATP binding (300 nM). The protocol: The results shown reflect the specific affinity of the inventive compounds on the ATP-dependent (K^+ATP) potassium channels. The specific binding measured corresponds to the difference between the total binding and the non-specific binding determined in the presence of an excess of non-marked reference ligand (glibenclamide 1 μM). The inventive compounds were tested at doses between 3 and 300 nM: the higher the percentage measured, the stronger the affinity of the compound for the ATP-dependent potassium channels.
The binding test was carried out at CEREP (Celle L'Evescault, France (86)) according to a protocol inspired by Angel et al. (Angel and Bidet 1991): the potassium channels derive from a rat's cerebral cortex and the reference compound is [^3H]glibenclamide at 0.1 nM. The protocol consists of incubation at 22° C. for one hour.
(In general: In a radioligand displacement assay an active substance lowers the binding of a labelled ligand.)

T4 sequence (Q09429 whole entry): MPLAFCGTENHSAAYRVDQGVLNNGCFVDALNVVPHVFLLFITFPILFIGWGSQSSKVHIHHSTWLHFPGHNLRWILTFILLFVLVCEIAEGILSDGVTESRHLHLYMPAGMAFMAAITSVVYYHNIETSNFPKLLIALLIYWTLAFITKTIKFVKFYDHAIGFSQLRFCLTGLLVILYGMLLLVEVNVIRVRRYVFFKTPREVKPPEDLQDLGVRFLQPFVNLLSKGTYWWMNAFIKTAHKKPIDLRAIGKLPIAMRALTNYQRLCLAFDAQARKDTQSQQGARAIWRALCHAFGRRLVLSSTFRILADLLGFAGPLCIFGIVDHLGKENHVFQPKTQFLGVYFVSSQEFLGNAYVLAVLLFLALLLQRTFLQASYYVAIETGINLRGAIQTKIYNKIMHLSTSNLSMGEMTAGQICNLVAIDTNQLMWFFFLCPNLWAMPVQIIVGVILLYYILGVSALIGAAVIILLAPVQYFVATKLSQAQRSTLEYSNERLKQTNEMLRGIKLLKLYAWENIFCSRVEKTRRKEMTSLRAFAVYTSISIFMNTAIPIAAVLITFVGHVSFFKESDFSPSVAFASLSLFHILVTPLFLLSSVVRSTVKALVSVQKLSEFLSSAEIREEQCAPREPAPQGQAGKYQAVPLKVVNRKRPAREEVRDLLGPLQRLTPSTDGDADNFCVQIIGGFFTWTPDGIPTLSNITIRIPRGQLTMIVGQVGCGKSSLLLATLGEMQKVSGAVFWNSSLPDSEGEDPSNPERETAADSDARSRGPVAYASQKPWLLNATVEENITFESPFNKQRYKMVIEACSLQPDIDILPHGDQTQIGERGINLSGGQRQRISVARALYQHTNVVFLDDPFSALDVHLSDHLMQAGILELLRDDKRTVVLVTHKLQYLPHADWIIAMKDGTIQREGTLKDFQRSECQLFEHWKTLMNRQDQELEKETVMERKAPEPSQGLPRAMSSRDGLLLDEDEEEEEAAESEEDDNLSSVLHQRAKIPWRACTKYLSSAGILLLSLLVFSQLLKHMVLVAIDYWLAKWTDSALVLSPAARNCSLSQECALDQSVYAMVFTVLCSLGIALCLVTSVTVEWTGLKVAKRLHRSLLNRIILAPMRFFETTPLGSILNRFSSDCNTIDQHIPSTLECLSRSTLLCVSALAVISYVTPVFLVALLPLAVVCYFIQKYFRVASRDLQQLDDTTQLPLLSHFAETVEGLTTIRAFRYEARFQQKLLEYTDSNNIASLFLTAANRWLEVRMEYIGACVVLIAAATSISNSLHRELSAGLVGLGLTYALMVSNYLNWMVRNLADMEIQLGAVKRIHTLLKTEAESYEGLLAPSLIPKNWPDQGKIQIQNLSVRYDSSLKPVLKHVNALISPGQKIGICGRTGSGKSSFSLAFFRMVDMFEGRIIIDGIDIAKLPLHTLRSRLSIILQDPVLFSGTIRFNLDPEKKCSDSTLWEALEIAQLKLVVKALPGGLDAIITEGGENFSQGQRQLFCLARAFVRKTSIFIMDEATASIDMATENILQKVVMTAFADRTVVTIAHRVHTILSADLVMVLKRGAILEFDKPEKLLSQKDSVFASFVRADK
T4 sequence (P70673 whole entry partner): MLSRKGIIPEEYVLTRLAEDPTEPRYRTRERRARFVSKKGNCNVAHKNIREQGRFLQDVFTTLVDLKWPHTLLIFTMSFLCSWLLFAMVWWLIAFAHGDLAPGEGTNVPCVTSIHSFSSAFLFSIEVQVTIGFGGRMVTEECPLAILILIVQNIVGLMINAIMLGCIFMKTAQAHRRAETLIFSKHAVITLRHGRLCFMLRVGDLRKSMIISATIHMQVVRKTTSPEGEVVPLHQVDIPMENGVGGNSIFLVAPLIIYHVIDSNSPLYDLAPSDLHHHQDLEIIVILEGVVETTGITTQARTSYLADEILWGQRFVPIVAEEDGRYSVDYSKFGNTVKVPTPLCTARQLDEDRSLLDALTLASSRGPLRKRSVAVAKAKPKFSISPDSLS

As to `CC(C)(Oc1ccc(CC(=O)NC(CC2CCCCC2)c2ccccc2N2CCCCC2)cc1)C(=O)O` (centres unmarked) [Compound 19, 2-[4-[1-(2-cyclohexyl-1-(2-(1-piperidinyl)phenyl)ethyl)aminocarbonylmethyl]phenoxy]-2-methylpropanoic acid], the activation at 10 µM on hPPARδ was less than 10%; on hPPARα, less than 10%; on hPPARγ it was 95%. The “selectivity with respect to PPAR isoforms” value (“selectivity” for short) in the assay on hPPARα, hPPARγ, hPPARδ was “activates neither hPPARα nor hPPARδ”.

On to `CCCCC(NC(=O)Cc1ccc(OC(C)(C)C(=O)O)cc1)c1ccccc1Sc1ccccc1` (centres unmarked) [Compound 36, 2-[4-[1-(1-(2-(phenylthio)phenyl)pentyl)aminocarbonylmethyl]phenoxy]-2-methylpropanoic acid], for which the activation at 10 µM at hPPARδ was less than 10%; on hPPARα it was 54%; on hPPARγ, 73%. Besides, the inhibition at 0.3 µM in assay [1] was 45%. Moreover, the “selectivity” value in the assay on hPPARα, hPPARγ, hPPARδ was “activates hPPARα and hPPARγ, but not hPPARδ”.

Take `CC(C)CC(NC(=O)Cc1ccc(OC(C)(C)C(=O)O)cc1)c1ccc(-c2ccccc2)cc1N1CCCCC1` (centres unmarked) [Compound 39, 2-[4-[1-(3-methyl-1-(2-(1-piperidinyl)-4-(phenyl)phenyl)butyl)aminocarbonylmethyl]phenoxy]-2-methylpropanoic acid]: the activation at 10 µM was determined as 24% at hPPARδ, 16% at hPPARα and 29% at hPPARγ. In addition, the “selectivity” value in the assay on hPPARα, hPPARγ, hPPARδ was “ligand of hPPARα, hPPARγ and hPPARδ”.

With `CCCCC(NC(=O)Cc1ccc(OC(C)(C)C(=O)O)cc1)c1ccc(-n2cccc2)cc1N1CCCCC1` (centres unmarked) [Compound 49, 2-[4-[1-(1-(2-(1-piperidinyl)-4-(1H-pyrrolyl)phenyl)pentyl)aminocarbonylmethyl]phenoxy]-2-methylpropanoic acid], the values for the activation at 10 µM on hPPARδ, at hPPARα and on hPPARγ were 57%, less than 10% and 87%, respectively. For the same compound, the “selectivity” value with hPPARα, hPPARγ, hPPARδ was “activates hPPARγ and hPPARδ, but not hPPARα”.

As for `CCCCC(NC(=O)Cc1ccc(OC(C)(C)C(=O)NS(=O)(=O)C(F)(F)F)cc1)c1ccccc1N1CCCCC1` (centres unmarked) [Compound 60, N-[trifluoromethylsulfonyl]-2-[4-[1-(1-(2-(1-piperidinyl)phenyl)pentyl)aminocarbonylmethyl]phenoxy]-2-methylpropanamide], the activation at 10 µM on hPPARδ was less than 10%; at hPPARα it was 46%; at hPPARγ, less than 10%. Besides, in assay [1], the inhibition at 0.3 µM came out at 49%. Further, the “selectivity” value in the assay on hPPARα, hPPARγ, hPPARδ was “hPPARα selective”.

Consider `CCCCC(NC(=O)Cc1ccc(OC(C)(C)C(=O)NS(=O)(=O)c2ccccc2)cc1)c1ccccc1N1CCCCC1` (centres unmarked) [Compound 61, N-[phenylsulfonyl]-2-[4-[1-(1-(2-(1-piperidinyl)phenyl)pentyl)aminocarbonylmethyl]phenoxy]-2-methylpropanamide], for which the activation at 10 µM at hPPARδ was less than 10%; on hPPARα it was 20%; at hPPARγ it was less than 10%. For the same compound, the inhibition at 0.3 µM in assay [1] worked out at 23%.

Take `CCCCC(NC(=O)Cc1ccc(OC(C)(C)C(=O)NS(=O)(=O)Cc2ccccc2)cc1)c1ccccc1N1CCCCC1` (centres unmarked) [Compound 63, N-[benzylsulfonyl]-2-[4-[1-(1-(2-(1-piperidinyl)phenyl)pentyl)aminocarbonylmethyl]phenoxy]-2-methylpropanamide]: the activation at 10 µM on hPPARδ is less than 10%; at hPPARα, 26%; at hPPARγ it was less than 10%. In addition, the inhibition at 0.3 µM in assay [1] came to 67%.

As for `CC(C)CC(NC(=O)Cc1ccc(OC(C)(C)C(=O)NS(=O)(=O)c2ccccc2)cc1)c1ccccc1N1CCCCC1` (centres unmarked) [Compound 64, N-[phenylsulfonyl]-2-[4-[1-(3-methyl-1-(2-(1-piperidinyl)phenyl)butyl)aminocarbonylmethyl]phenoxy]-2-methylpropanamide], the activation at 10 µM at hPPARδ is less than 10%; on hPPARα it was less than 10%; on hPPARγ, 18%. In assay [1], the inhibition at 0.3 µM turned out to be 57%.

Regarding `CCCC(NC(=O)Cc1ccc(OC(C)(C)C(=O)O)cc1)c1ccccc1N1CCCCC1` (centres unmarked) [Compound 65, 2-[4-[1-(1-(2-(1-piperidinyl)phenyl)butyl)aminocarbonylmethyl]phenoxy]-2-methylpropanoic acid], the results for the activation at 10 µM on hPPARδ, on hPPARα and on hPPARγ were less than 10%, less than 10% and 50%, respectively. In assay [1], the inhibition at 0.3 µM was determined as 90%.
